Data as given in patent US8652718B2, “Resin composition, image-forming material, and image-forming method” (Fuji Xerox Co., Ltd., priority 2012, dated 2014).
Converted amounts (≈) assume the structure as drawn. Where two headings read alike, the source gives them in different places.

Key:
[1] = Measurement of solubility in tetrahydrofuran; type: physicochemical; details: for Solubility in tetrahydrofuran compared to Formulae (II-1) and (II-2): comparison in words from Table 1; for solubility: tetrahydrofuran, 24 °C, organic solvent or mixture, thermodynamic from solid, 24±1° C.
Protocol: The solubility of the compound represented by Formula (I-1) in tetrahydrofuran (24±1° C.) is measured in the following manner.
After 10.00 mg of the compound (dark brown solid) represented by Formula (I-1) is mixed with 5.00 ml of tetrahydrofuran in a screw vial, the vial is irradiated with ultrasonic waves for 30 minutes while the vial is sealed with a cap, and left to stand overnight at room temperature. The obtained solution is filtered through a membrane filter having a pore size of 25 nm, and a dry weight of the dark brown solid remaining on the filter is measured. As a result, the weight of the compound represented by Formula (I-1) dissolved in 5.00 ml of tetrahydrofuran is found, whereby the solubility in tetrahydrofuran may be calculated.

[2] = Visible near-infrared absorption spectrum in a tetrahydrofuran solution; type: physicochemical
Source text: The dark brown solid obtained as above is identified by an infrared absorption spectrum (KBr tablet method), a ^1H-NMR spectrum, a mass spectrum, and a visible near-infrared absorption spectrum. As a result, the dark brown solid described above is confirmed to have a molecular structure represented by Formula (I-1).
Visible Near-Infrared Absorption Spectrum (FIG. 1): […]

[3] = read-out: Solubility in tetrahydrofuran
[4] = read-out: Solubility in tetrahydrofuran, Relative evaluation

Row | Compound | Solubility in tetrahydrofuran compared to Formulae (II-1) and (II-2) [1] | solubility [1, 3] [µg/mL] | solubility [1, 4] [µg/mL] | Maximum absorption wavelength (λmax) [2] [nm] | Molar absorption coefficient at the maximum absorption wavelength (εmax) [2] [M⁻¹ cm⁻¹]
1 | CC(C)(C)c1ccc(C2=CC(=CC3=C([O-])/C(=C/c4cc(-c5ccc(C(C)(C)C)cc5)[s+]c(-c5ccc(C(C)(C)C)cc5)c4)C3=O)C=C(c3ccc(C(C)(C)C)cc3)S2)cc1 [Formula I-1] | superior solubility in tetrahydrofuran | 1300 | ≥ 1000 | 908 | 269000
2 | CCCCc1ccc(C2=CC(=CC3=C([O-])/C(=C/c4cc(-c5ccc(CCCC)cc5)[s+]c(-c5ccc(CCCC)cc5)c4)C3=O)C=C(c3ccc(CCCC)cc3)S2)cc1 [Formula I-2] | superior solubility in tetrahydrofuran | 1100 | ≥ 1000 | 910 | 210000
3 | CCc1ccc(C2=CC(=CC3=C([O-])/C(=C/c4cc(-c5ccc(CC)cc5)[s+]c(-c5ccc(CC)cc5)c4)C3=O)C=C(c3ccc(CC)cc3)S2)cc1 [Formula I-3] | superior solubility in tetrahydrofuran | 600 | 100 to 1000 | 908 | 180000
4 | O=C1C(C=C2C=C(c3ccccc3)SC(c3ccccc3)=C2)=C([O-])/C1=C/c1cc(-c2ccccc2)[s+]c(-c2ccccc2)c1 [II-1, reference compound] |  | < 50 | < 100 | 901 | 207000
5 | Cc1ccc(C2=CC(=CC3=C([O-])/C(=C/c4cc(-c5ccc(C)cc5)[s+]c(-c5ccc(C)cc5)c4)C3=O)C=C(c3ccc(C)cc3)S2)cc1 [II-2, reference compound] |  | 300 (≈ 455 µM) | 100 to 1000 (≈ 152 to 1520 µM) | 905 | 190000
6 | CCCCCCc1ccc(C2=CC(=CC3=C([O-])/C(=C/c4cc(-c5ccc(CCCCCC)cc5)[s+]c(-c5ccc(CCCCCC)cc5)c4)C3=O)C=C(c3ccc(CCCCCC)cc3)S2)cc1 [II-3, reference compound] |  | 1100 (≈ 1170 µM) | ≥ 1000 | 910 | 200000
